The source of these data is PMC11784099 (Journal of Virology, 2024).

pIC50: −log10 of the molar value. Like-named read-outs stand apart in the source and are kept apart here.

The test system of series [1] is cGAS/STING signaling pathway. Type of series: cell-based, pigs.
For series [2], the system named is PK-15 cells.
Series [3] relates to Pseudorabies virus (Ra strain). The series is described as follows: microbe, parasite or virus in culture. It counts as cell-based.
Series [4] is described as follows: in vitro. The conditions noted are these: pig.
Series [5] deals with JAK/STAT signaling pathway. Type of series: cell-based, pigs.
Series [6] has as its system cGAS/STING signaling pathway. It counts as cell-based.
Series [7] concerns type I interferon signaling pathway. Set-up: species or system mice. Particulars: mouse, in vivo.
The test system is the same in series [8]. Set-up: species or system mice. Particulars: mouse, in vivo. This is another data set of the same source.
Series [9] concerns IRF3 phosphorylation (cGAS/STING signaling pathway). It counts as cell-based, pigs.
Series [10] has as its system JAK/STAT signaling pathway. It counts as cell-based, pigs. The source holds these as a separate data set.
Series [11] deals with IFN-β. Set-up: species or system mice. Particulars: mouse, in vivo.
Series [12] has as its system PRV. Set-up: species or system mice. The conditions noted are these: mouse, in vivo.
Series [13] deals with p-IRF3. Type of series: cell-based, pigs.
The subject of series [14] is PRV. The conditions noted are these: mouse, in vivo; cited from earlier work.
Series [15] deals with IFN-β promoter. It counts as cell-based.
Series [16] relates to cGAMP production. Type of series: cell-based, pigs.
[17] abbreviates: Suid alphaherpesvirus 1, PK-15, 1 h.

`O=c1cc(-c2ccccc2)oc2cc(O)c(O)c(O)c12` [Baicalein]: in series [1], the “mRNA expression level of cGAS” value was “significantly enhance”, the “mRNA level of IRF3” value is given as “no discernible differences”, the “mRNA level of STING” value is on record as “significantly increase” and the “mRNA levels of IFN-β” value is “significantly elevate”. This compound gave a CC50 in series [2] of 563 µM. Besides, the pIC50 (in general, the negative decadic logarithm of the IC50, by convention in mol/L) in series [3] (read-out: IC50) is 3.54.
The compound `COc1ccc(-c2coc3cc(O)cc(O)c3c2=O)cc1` [Biochanin A] showed a CC50 in series [2] of 382 µM.
The compound `O=c1cc(-c2ccccc2)oc2cc(O)cc(O)c12` [Chrysin] came in with a CC50 in series [4] of 107 µM.
The compound `O=C1c2c(O)cc(O)cc2O[C@H](c2cc(O)c(O)c(O)c2)[C@H]1O` [Dihydromyricetin] displayed a CC50 in series [4] of 914 µM. Besides, in series [3] (setting [17]), the pIC50 was 3.79.
As to `O=c1c(O)c(-c2ccc(O)c(O)c2)oc2cc(O)ccc12` [Fisetin], the CC50 in series [4] was 717 µM. Also, the IC50 result in [3] is reported as “–^b”.
Turning to `COc1ccc(-c2coc3cc(O)ccc3c2=O)cc1` [Formononetin], the CC50 in series [4] came out at 228 µM.
Compound `COc1ccc([C@@H]2CC(=O)c3c(O)cc(O[C@@H]4O[C@H](CO[C@@H]5O[C@@H](C)[C@H](O)[C@@H](O)[C@H]5O)[C@@H](O)[C@H](O)[C@H]4O)cc3O2)cc1O` [Hesperidin] returned a CC50 in [2] of more than 238 µM.
For the compound `COc1ccc(-c2oc3c(CC=C(C)C)c(O[C@@H]4O[C@H](CO)[C@@H](O)[C@H](O)[C@H]4O)cc(O)c3c(=O)c2O[C@@H]2O[C@@H](C)[C@H](O)[C@@H](O)[C@H]2O)cc1` [Icariin], the CC50 in [4] is more than 382 µM.
Compound `O=c1c(O)c(-c2ccc(O)cc2)oc2cc(O)cc(O)c12` [Kaempferol] gave a CC50 in series [4] of 255 µM. In addition, in series [3] (setting [17]), the pIC50 is 4.59.
`O=C1C[C@@H](c2ccc(O)cc2)Oc2cc(O)ccc21` [Liquiritigenin] had a CC50 in series [2] of 790 µM. Besides, the pIC50 in [3] (read-out: IC50) is 3.49.
In series [4], `O=c1cc(-c2ccc(O)c(O)c2)oc2cc(O)cc(O)c12` [Lutelin] yielded a CC50 of 195 µM. Further, in series [1], the “mRNA expression level of cGAS” value is given as “significantly enhance”, the “mRNA level of IRF3” value is “no discernible differences” and the “mRNA level of STING” value is “significantly increase”. The same compound gave a pIC50 in [3] (setting [17]) of 4.43.
The compound `O=c1c2cc(O)c(O)cc2oc2cc(O)c([C@@H]3O[C@H](CO)[C@@H](O)[C@H](O)[C@H]3O)c(O)c12` [Mangiferin] showed a CC50 in [4] of more than 1050 µM.
Regarding `O=c1c(O)c(-c2cc(O)c(O)c(O)c2)oc2cc(O)cc(O)c12` [Myricetin], in series [5], the “effect proteins ISG15 and OAS1” value is listed as “significantly increased”; the “protein levels of STAT1, p-STAT1 and p-STAT1/STAT1” value is listed as “significantly higher”. Further, the “protein expressions of cGAS, STING, TBK1, IRF3 and p-IRF3” value in [6] was “significantly increase”. The “transcriptional levels of cGAS, STING, TBK1, IRF3, IRF7, IFN-β, ISG56 and ISG54 in heart, liver, spleen, lung and kidney” value in [7] is “significantly higher”. This compound came in with a CC50 in [4] of more than 1000 µM. Further, in [8], the “expression levels of antiviral effectors MX1, OAS1 and ISG15 in brain and kidney” value was “higher expression levels”. For the same compound, in [1], the “mRNA expression level of cGAS” value is on record as “significantly enhance”, the “mRNA level of IRF3” value is “significantly increase”, the “mRNA level of STING” value was “significantly increase” and the “mRNA levels of IFN-β” value is on record as “significantly elevate”. In addition, in [1], the “mRNA levels of cGAS, STING, TBK1, IRF3, IRF7 and IFN-β” value is given as “all increased”. Further, the “levels of p-IRF3 and p-IRF3/IRF3” value in series [9] is listed as “significantly elevated”. In addition, in series [10], the “transcriptional levels of JAK1, STAT1, IRF9, ISG15, ISG56 and ISG54” value is listed as “notable elevation”. The “production of IFN-β in tissues (ELISA)” value in [11] is “significantly promote”. Moreover, in series [3] (setting [17]), the pIC50 was 4.37. For the same compound, in [12], the “mortality rate at 4 dpi” value is on record as 70%. Besides, the “total amount of IRF3 phosphorylation (fluorescence intensity)” value in series [13] is given as “significant enhancement”. In series [14], the “mortality rate at 4 dpi” value is listed as 0%, the “mortality rate at 5 dpi” value is given as 30% and the “reduction in viral copies in the kidney” value is given as “up to 80 fold”. Moreover, the “expression level of the IFN-β promoter, ratio to infected control group” value in series [15] is approximately 2 fold. Further, the “increase in cGAMP production compared with the blank group” value in series [16] is approximately 1.5 fold.
`O=C1C[C@@H](c2ccc(O)cc2)Oc2cc(O)cc(O)c21` [Naringenin]: in [1], the “mRNA expression level of cGAS” value is listed as “significantly enhance”, the “mRNA level of IRF3” value was “no discernible differences” and the “mRNA levels of IFN-β” value was “significantly elevate”.
With `COc1ccc([C@@H]2CC(=O)c3c(O)cc(O[C@@H]4O[C@H](CO)[C@@H](O)[C@H](O)[C@H]4O[C@@H]4O[C@@H](C)[C@H](O)[C@@H](O)[C@H]4O)cc3O2)cc1O` [Neohesperidin], the CC50 in series [2] is more than 1000 µM.
The same measure, in the same setting: to `COc1cc2c(cc1OC)-c1cc3ccc(OC)c(OC)c3c[n+]1CC2` [Palmatine] belongs 1250 µM.
In series [4], `OC[C@H]1O[C@@H](Oc2cc(O)cc(/C=C/c3ccc(O)cc3)c2)[C@H](O)[C@@H](O)[C@@H]1O` [Polydatin] came in with a CC50 of more than 466 µM.
With `O=c1c(O)c(-c2ccc(O)c(O)c2)oc2cc(O)cc(O)c12` [Quercetin], the CC50 in [4] was found to be 449 µM; in [2] (pig), 890 µM.
Consider `C[C@@H]1O[C@@H](OC[C@H]2O[C@@H](Oc3c(-c4ccc(O)c(O)c4)oc4cc(O)cc(O)c4c3=O)[C@H](O)[C@@H](O)[C@@H]2O)[C@H](O)[C@H](O)[C@H]1O` [Rutin], for which the CC50 in [4] is more than 389 µM.
`O=C(O)[C@H]1O[C@@H](Oc2cc3oc(-c4ccc(O)cc4)cc(=O)c3c(O)c2O)[C@H](O)[C@@H](O)[C@@H]1O` [Scutellarin]: the CC50 in [4] was more than 213 µM.
Consider `COc1cc(C2Oc3cc([C@H]4Oc5cc(O)cc(O)c5C(=O)[C@@H]4O)ccc3OC2CO)ccc1O` (some centres unmarked) [Silibinin], for which, in series [4], the CC50 stood at 392 µM. This compound showed a pIC50 in series [3] (setting [17]) of 3.69.
`CC1(C)[C@@H](O[C@H]2O[C@H](C(=O)O)[C@@H](O)[C@H](O)[C@H]2O[C@@H]2O[C@H](C(=O)O)[C@@H](O)[C@H](O)[C@H]2O)CC[C@]2(C)[C@H]3C(=O)C=C4[C@@H]5C[C@@](C)(C(=O)O)CC[C@]5(C)CC[C@@]4(C)[C@]3(C)CC[C@@H]12` [glycyrrhizic acid] had a pIC50 in series [3] (setting [17]) of 3.49 to 4.63.
For `Oc1ccc(/C=C/c2cc(O)cc(O)c2)cc1` [resveratrol], in series [3] (setting [17]), the pIC50 is 3.49 to 4.63.
In the case of Pueraria, the CC50 in [2] was more than 461 µM.
